According to US8399493B2, “Pyridinone derivatives and their use as positive allosteric modulators of mGluR2-receptors” (Janssen Pharmaceuticals, Inc., priority 2004, dated 2013):

| Structure (SMILES) | melting point [°C] |
| --- | --- |
| COCc1ccc(Cn2cc(-c3ccc(OC)cc3)ccc2=O)cc1 [4-25, 1-(4-(Methoxymethyl)benzyl)-5-(4-methoxyphenyl)pyridin-2(1H)-one] | 72 |
| COC(=O)c1ccc(Cn2cc(-c3ccc(OC)cc3)ccc2=O)cc1 [4-27] | 147 to 150 |
| COc1ccc(-c2ccc(=O)n(Cc3cccc(C#N)c3)c2)cc1 [4-29] | 165 |
| COc1ccc(-c2ccc(=O)n(Cc3ccc(C#N)cc3)c2)cc1 [4-30] | 119 to 120 |
| COc1ccc(-c2ccc(=O)n(Cc3ccc(OC(F)(F)F)cc3)c2)cc1 [4-31] | 130 |
| COc1ccc(-c2ccc(=O)n(Cc3ccc([N+](=O)[O-])cc3)c2)cc1 [4-33] | 95 |
| COc1ccc(-c2ccc(=O)n(Cc3ccc(C(F)(F)F)cc3F)c2)cc1 [4-34] | 131 to 134 |
| COc1ccc(-c2ccc(=O)n(Cc3ccc(C(F)(F)F)c(F)c3)c2)cc1 [4-35] | 82 to 84 |
| COc1ccc(-c2ccc(=O)n(Cc3ccc(C)c(F)c3)c2)cc1 [4-36] | 98 to 100 |
| COc1ccc(-c2ccc(=O)n(Cc3ccc4ccccc4c3)c2)cc1 [4-38] | 145 to 148 |
| COc1ccc(-c2ccc(=O)n(Cc3ccc(C(F)(F)F)o3)c2)cc1 [4-39] | 120 |
| COc1ccc(-c2ccc(=O)n(Cc3cc(C)on3)c2)cc1 [4-40] | 100 to 102 |
| COc1ccc(-c2ccc(=O)n(Cc3noc(-c4ccccc4)n3)c2)cc1 [4-41] | 104 |
| COc1ccc(-c2ccc(=O)n(Cc3nc(-c4ccc(F)cc4)no3)c2)cc1 [4-42, 1-((3-(4-Fluorophenyl)-1,2,4-oxadiazol-5-yl)methyl)-5-(4-methoxyphenyl)pyridin-2(1H)-one] | 123 |
| COc1ccc(-c2ccc(=O)n(Cc3ccc(Cl)nc3)c2)cc1 [4-44] | 135 |
| CCc1ccc(Cn2cc(-c3ccc(OC)cc3)ccc2=O)cn1 [4-45, 1-((6-Ethylpyridin-3-yl)methyl)-5-(4-methoxyphenyl)pyridin-2(1H)-one] | 130 |
| COc1ccc(-c2ccc(=O)n(Cc3nc4cc(F)ccc4o3)c2)cc1 [4-51, 1-((5-Fluorobenzo[d]oxazol-2-yl)methyl)-5-(4-methoxyphenyl)-pyridin-2(1H)-one] | 115 |
| COc1ccc(-c2ccc(=O)n(Cc3cnc(C)s3)c2)cc1 [4-52] | 127 to 130 |
| COc1ccc(-c2ccc(=O)n(Cc3nc4ccccc4s3)c2)cc1 [4-53] | 121 |
| COc1ccc(-c2ccc(=O)n(Cc3nc4c(F)cccc4s3)c2)cc1 [4-54] | 126 |
| Cc1ccc(-c2ccc(=O)n(Cc3cccc(F)c3)c2)cc1 [6-04] | 112 to 113 |

| Structure (SMILES) | melting point [°C] |
| --- | --- |
| COCc1ccc(-c2ccc(=O)n(Cc3ccc(F)c(F)c3)c2)cc1 [6-11] | 85 |
| CC(=O)c1ccc(-c2ccc(=O)n(Cc3ccc(F)c(F)c3)c2)cc1 [6-12] | 142 |
| N#Cc1ccc(-c2ccc(=O)n(Cc3ccc(F)c(F)c3)c2)cc1 [6-13] | 139 |
| O=c1ccc(-c2cccs2)cn1Cc1ccc(F)c(F)c1 [6-15] | 96 |
| O=c1ccc(-c2ccc3c(c2)CCO3)cn1Cc1ccc(F)c(F)c1 [6-17] | 99 |
| O=c1ccc(-c2ccc3c(c2)OCO3)cn1Cc1ccc(F)c(F)c1 [6-18] | 181 |
| O=c1ccc(-c2nc3ccccc3s2)cn1Cc1ccc(Cl)c(F)c1 [6-19, 1-(4-Chloro-3-fluorobenzyl)-5-(benzo[d]thiazol-2-yl)pyridin-2(1H)-one] | 164 |
| O=c1ccc(Br)cn1Cc1ccc(Cl)cc1F [6-20] | 102 |
| O=c1ccc(-c2ccc(O)cc2)cn1Cc1ccc(Cl)cc1F [6-21] | 224 |
| Nc1cccc(-c2ccc(=O)n(Cc3ccc(Cl)cc3F)c2)c1 [6-22] | 70 |
| NCc1ccc(-c2ccc(=O)n(Cc3ccc(Cl)cc3F)c2)cc1 [6-24] | 139 |
| N#Cc1cccc(-c2ccc(=O)n(Cc3ccc(Cl)cc3F)c2)c1 [6-25] | 140 |
| O=c1ccc(-c2ccc(CO)cc2)cn1Cc1ccc(Cl)cc1F [6-26] | 176 |
| O=c1ccc(-c2ccc(C(F)(F)F)cc2)cn1Cc1ccc(Cl)cc1F [6-27] | 127 |
| COc1ccc(-c2ccc(=O)n(Cc3ccc(Cl)cc3F)c2)cc1C [6-28] | 104 |
| COc1ccc(-c2ccc(=O)n(Cc3ccc(Cl)cc3F)c2)cc1OC [6-31] | 141 |
| CCCOc1ccc(-c2ccc(=O)n(Cc3ccc(Cl)cc3F)c2)cc1 [6-32] | 107 |
| CC(C)COc1ccc(-c2ccc(=O)n(Cc3ccc(Cl)cc3F)c2)cc1 [6-33] | 88 |
| COCCOc1ccc(-c2ccc(=O)n(Cc3ccc(Cl)cc3F)c2)cc1 [6-36] | 90 |
| O=c1ccc(-c2ccc(OCc3ccco3)cc2)cn1Cc1ccc(Cl)cc1F [6-37] | 114 |
| COC(=O)Oc1ccc(-c2ccc(=O)n(Cc3ccc(Cl)cc3F)c2)cc1 [6-39, 4-(1-(4-Chloro-2-fluorobenzyl)-6-oxo-1,6-dihydropyridin-3-yl)phenyl methyl carbonate] | 124 |

More lines, now with the values ahead:

| melting point [°C] | Structure (SMILES) |
| --- | --- |
| 127 | CC(=O)COc1ccc(-c2ccc(=O)n(Cc3ccc(Cl)cc3F)c2)cc1 [6-40, 1-(4-Chloro-2-fluorobenzyl)-5-(4-(2-oxopropoxy)phenyl)pyridin-2(1H)-one] |
| 119 | COC(=O)COc1ccc(-c2ccc(=O)n(Cc3ccc(Cl)cc3F)c2)cc1 [6-41] |
| 226 | NCCOc1ccc(-c2ccc(=O)n(Cc3ccc(Cl)cc3F)c2)cc1 [6-42] |
| 253 | NCCCOc1ccc(-c2ccc(=O)n(Cc3ccc(Cl)cc3F)c2)cc1 [6-43] |
| 85 | CN(C)CCOc1ccc(-c2ccc(=O)n(Cc3ccc(Cl)cc3F)c2)cc1 [6-44] |
| 104 | CN(C)CCCOc1ccc(-c2ccc(=O)n(Cc3ccc(Cl)cc3F)c2)cc1 [6-45] |
| 160 | N#CCOc1ccc(-c2ccc(=O)n(Cc3ccc(Cl)cc3F)c2)cc1 [6-46, 2-(4-(1-(4-Chloro-2-fluorobenzyl)-6-oxo-1,6-dihydropyridin-3-yl)-phenoxy)acetonitrile] |
| 153 | O=c1ccc(-c2ccc(OCCCN3CCOCC3)cc2)cn1Cc1ccc(Cl)cc1F [6-48] |
| 136 | COc1ccc(-c2ccc(=O)n(Cc3ccc(Cl)cc3F)c2)cn1 [6-51, 1-(4-Chloro-2-fluorobenzyl)-5-(6-methoxypyridin-3-yl)pyridin-2(1H)-one] |
| 162 | CNC(=O)COc1ccc(-c2ccc(=O)n(Cc3ccc(Cl)cc3F)c2)cc1 [6-52] |
| 153 | CC(=O)NCCOc1ccc(-c2ccc(=O)n(Cc3ccc(Cl)cc3F)c2)cc1 [6-53, N-(2-(4-(1-(4-Chloro-2-fluorobenzyl)-6-oxo-1,6-dihydropyridin-3-yl)phenoxy)ethyl)acetamide] |
| 121 | CC(=O)N(CCOc1ccc(-c2ccc(=O)n(Cc3ccc(Cl)cc3F)c2)cc1)C(C)=O [6-55] |
| 131 | CC(=O)N(CCCOc1ccc(-c2ccc(=O)n(Cc3ccc(Cl)cc3F)c2)cc1)C(C)=O [6-56] |
| 194 | CC(=O)Nc1cccc(-c2ccc(=O)n(Cc3ccc(Cl)cc3F)c2)c1 [6-57] |
| 230 | CC(=O)Nc1ccc(-c2ccc(=O)n(Cc3ccc(Cl)cc3F)c2)cc1 [6-58] |
| 143 | CC(=O)NCc1cccc(-c2ccc(=O)n(Cc3ccc(Cl)cc3F)c2)c1 [6-60] |
| 150 | CC(=O)NCc1ccc(-c2ccc(=O)n(Cc3ccc(Cl)cc3F)c2)cc1 [6-61] |
| 180 | O=C1CCCN1CCOc1ccc(-c2ccc(=O)n(Cc3ccc(Cl)cc3F)c2)cc1 [6-62] |

| melting point [°C] | Structure (SMILES) |
| --- | --- |
| 135 | Cc1cc(COc2ccc(-c3ccc(=O)n(Cc4ccc(Cl)cc4F)c3)cc2)no1 [6-63] |
| 90 | Cc1nc(COc2ccc(-c3ccc(=O)n(Cc4ccc(Cl)cc4F)c3)cc2)cs1 [6-66] |
| 240 | O=c1ccc(-c2cccc(-c3nn[nH]n3)c2)cn1Cc1ccc(Cl)cc1F [6-67] |
| 241 | O=c1ccc(-c2ccc(-c3nnn[nH]3)cc2)cn1Cc1ccc(Cl)cc1F [6-68] |
| 110 | O=c1ccc(-c2ccc3sccc3c2)cn1Cc1ccc(Cl)cc1F [6-69, 1-(4-Chloro-2-fluorobenzyl)-5-(benzo[b]thiophen-5-yl)pyridin-2(1H)-one] |
| 139 | CS(=O)(=O)NCCOc1ccc(-c2ccc(=O)n(Cc3ccc(Cl)cc3F)c2)cc1 [6-70] |
| 157 | CS(=O)(=O)NCCCOc1ccc(-c2ccc(=O)n(Cc3ccc(Cl)cc3F)c2)cc1 [6-71] |
| 110 | CS(=O)(=O)NCc1cccc(-c2ccc(=O)n(Cc3ccc(Cl)cc3F)c2)c1 [6-72] |
| 141 | O=c1ccc(-c2ccc(S(=O)(=O)N3CCOCC3)cc2)cn1Cc1ccc(Cl)cc1F [6-74] |
| 177 | O=c1ccc(-c2ccc(S(=O)(=O)N3CCCC3)cc2)cn1Cc1ccc(Cl)cc1F [6-75] |
| 97 | COc1ccc(Cn2cc(-c3ccc(C(C)=O)cc3)ccc2=O)cc1 [6-76] |
| 134 | COc1ccc(Cn2cc(-c3ccc(C#N)cc3)ccc2=O)cc1 [6-77] |
| 160 | COc1ccc(-c2ccc(=O)n(Cc3ccc(C(F)(F)F)nc3)c2)cn1 [6-80] |
| 149 | O=c1ccc(-c2ccccc2)cn1Cc1nc2ccccc2s1 [6-81] |
| 93 | O=c1cc(OCCc2ccccc2)ccn1Cc1cccc(F)c1 [7-03, 1-(3-Fluorobenzyl)-4-phenethoxypyridin-2(1H)-one] |
| 159 | CC(C)CCn1cc(-c2cccc(NS(C)(=O)=O)c2)ccc1=O [8-02, N-(3-(1-Isopentyl-6-oxo-1,6-dihydropyridin-3-yl)phenyl)methane-sulfonamide] |
| 128 | COc1ccc(-c2cc(CO)c(=O)n(Cc3ccc(Cl)cc3)c2)cc1 [9-08, 1-(4-Chlorobenzyl)-3-(hydroxymethyl)-5-(4-methoxyphenyl)pyridin-2(1H)-one] |
| 142 | O=c1ccc(CNc2ccccc2)cn1Cc1ccc(Cl)cc1 [16-01] |
